Test results published in article PMC3847553, “Kinetic properties of “dual” orexin receptor antagonists at OX1R and OX2R orexin receptors” (Frontiers in Neuroscience, 2013).
Read-outs that look alike come from different tables or passages of the source.

Key:
[1] = molecular target: T1, human OX2R (Homo sapiens, UniProt O43614); experiment: FLIPR orexin A-stimulated calcium accumulation, human OX2R; format: cell-based; conditions: CHO cells
T1 construct: expressed in transfected cells; host or cells: CHO; cells from GNF, San Diego
T1 sequence (O43614 1-444): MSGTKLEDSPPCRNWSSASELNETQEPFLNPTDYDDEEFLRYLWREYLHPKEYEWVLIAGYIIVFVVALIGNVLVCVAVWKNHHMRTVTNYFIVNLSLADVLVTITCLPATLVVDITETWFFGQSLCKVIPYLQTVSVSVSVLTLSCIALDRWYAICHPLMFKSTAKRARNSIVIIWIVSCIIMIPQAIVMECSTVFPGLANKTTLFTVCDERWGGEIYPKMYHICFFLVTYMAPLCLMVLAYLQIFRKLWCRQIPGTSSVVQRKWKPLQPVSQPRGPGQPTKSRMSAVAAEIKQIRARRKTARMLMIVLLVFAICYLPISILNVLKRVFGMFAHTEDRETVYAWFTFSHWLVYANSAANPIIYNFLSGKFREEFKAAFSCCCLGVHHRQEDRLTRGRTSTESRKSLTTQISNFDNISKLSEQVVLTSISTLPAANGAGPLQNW
Excerpt: (§1) Chinese Hamster Ovary (CHO) cells stably transfected with the cDNA encoding the human OX1R (CHO-hOX1) or OX2R (CHO-hOX2) were used (kindly provided by T. Cremer and Dr. S. Geisse, NIBR Basel, Switzerland). For measurements of calcium accumulation using FLIPR® (Fluorescent Imaging Plate Reader) assay, CHO or Human Embryonic Kidney (HEK) cells stably expressing mouse, rat or human OX1R or OX2R (kindly provided by Dr. A. Chen, GNF, San Diego, CA, USA) were used. […] Cells were maintained in a humidified incubator at 37°C in 5% CO2. For crude cell membrane preparations, cells were washed and harvested in 10 mM HEPES (pH 7.5), and centrifuged at 4°C for 5 min at 2500 g. The cell pellet was either stored at −80°C or used directly.
(§2) Cells expressing either human, rat or mouse OX1R or OX2R were seeded at 8,000 cells/well in black 384 well clear bottom plates and incubated overnight at 37°C. The following day, medium was discarded and cells loaded with 50 μ l of 1 mM Fluo-4 AM (Invitrogen F14202) in dimethyl sulfoxide in working buffer (Hanks' balanced salt solution, 10 mM HEPES) and incubated for 60 min at 37°C. The loading buffer was removed and cells were washed with 100 μ l working buffer containing […], 0.1% BSA, and 2.5 mM Probenecid (pH 7.4) to remove the excess Fluo-4 AM. […] The assay plate was then transferred to the Molecular Devices-FLIPR384. The baseline calcium signal was recorded for 10 s, then the antagonist of interest was injected (10 μl at 3 times the final concentration) and the calcium signal recorded every second for 1 min, then every 2 s 40 times.

[2] = molecular target: T2, mouse OX2R (Mus musculus, UniProt P58308); experiment: FLIPR orexin A-stimulated calcium accumulation, mouse OX2R; format: cell-based; conditions: HEK cells
T2 construct: expressed in transfected cells; host or cells: HEK; cells from GNF, San Diego
T2 sequence (P58308 1-460): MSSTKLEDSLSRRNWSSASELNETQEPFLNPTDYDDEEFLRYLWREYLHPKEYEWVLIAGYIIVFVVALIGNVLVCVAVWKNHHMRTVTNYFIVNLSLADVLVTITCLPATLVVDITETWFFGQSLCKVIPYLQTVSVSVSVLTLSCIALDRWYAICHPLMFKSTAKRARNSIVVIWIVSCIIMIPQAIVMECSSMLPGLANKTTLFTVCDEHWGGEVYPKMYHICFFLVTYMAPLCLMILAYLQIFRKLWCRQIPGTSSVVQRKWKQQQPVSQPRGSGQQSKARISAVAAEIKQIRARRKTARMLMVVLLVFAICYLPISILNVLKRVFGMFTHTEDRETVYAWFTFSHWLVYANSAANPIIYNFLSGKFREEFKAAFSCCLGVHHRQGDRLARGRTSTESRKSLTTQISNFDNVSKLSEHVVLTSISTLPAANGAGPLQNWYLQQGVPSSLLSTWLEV
Excerpt: as §1, §2

[3] = molecular target: T3, human OX1R (Homo sapiens, UniProt O43613); experiment: [3H]-BBAC competition binding over time, CHO-hOX1 membranes
T3 construct: expressed in transfected cells; host or cells: CHO; cells from GNF, San Diego
T3 sequence (O43613 1-425): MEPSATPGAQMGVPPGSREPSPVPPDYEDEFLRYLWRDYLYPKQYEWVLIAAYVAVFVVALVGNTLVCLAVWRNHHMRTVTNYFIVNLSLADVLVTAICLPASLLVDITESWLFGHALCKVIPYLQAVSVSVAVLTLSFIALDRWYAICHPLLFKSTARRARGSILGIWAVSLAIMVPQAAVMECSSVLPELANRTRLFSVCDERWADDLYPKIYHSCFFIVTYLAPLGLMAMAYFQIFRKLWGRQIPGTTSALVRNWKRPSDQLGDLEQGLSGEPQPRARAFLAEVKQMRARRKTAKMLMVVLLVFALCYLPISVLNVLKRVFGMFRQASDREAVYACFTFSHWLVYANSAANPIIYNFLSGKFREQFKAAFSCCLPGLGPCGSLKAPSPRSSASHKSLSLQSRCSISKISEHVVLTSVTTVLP
Excerpt: as §1
Cell membranes were resuspended in binding assay buffer at 4°C (10 mM HEPES, pH 7.5, 0.5% (w/v) bovine serum albumin (BSA), 5 mM MgCl2, 1 mM CaCl2, and 0.05% Tween 20) and homogenized with a Polytron homogenizer at 50 Hz for 20 s. […] Radioactivity was quantified using a TopCount™ microplate counter (Perkin Elmer).
All data was analyzed using GraphPad Prism 4.0 (GraphPad, San Diego, USA). The saturation data was fit to a non-linear regression model for saturation binding with consideration for one site binding. […] Competition binding data was fit to a non-linear regression model for competition binding with consideration for variable one site binding with a non-fixed Hill slope.

[4] = antagonist incubation 1 h, read-out: pKi (converted)
[5] = antagonist incubation 2 h, read-out: pKi (converted)
[6] = antagonist incubation 4 h, read-out: pKi (converted)
[7] = pKi, antagonist incubation 30 min
[8] = antagonist incubation 30 min, read-out: pKi (converted)
[9] = competition for 4.6 nM [3H]-BBAC, 15 min to 4 h, human OX1R

Row | SMILES | pKi ([1]; antagonist incubation 30 min) | Ki ([1]; antagonist incubation 1 h) | Ki ([1]; antagonist incubation 2 h) | Ki ([1]; antagonist incubation 4 h) | Ki [2, 4] | Ki [2, 5] | Ki [2, 6] | Ki [2, 7] | effect of incubation time on competition curves [3] | Ki ([1]; antagonist incubation 30 min) | Ki [2, 8] | effect of incubation time on competition curves [3, 9] | Ki ([2]; pKi, antagonist incubation 1 h) | Ki ([2]; pKi, antagonist incubation 2 h) | Ki ([2]; pKi, antagonist incubation 4 h)
1 | CNC(=O)[C@@H](c1ccccc1)N1CCc2cc(OC)c(OC)cc2[C@@H]1CCc1ccc(C(F)(F)F)cc1 [Almorexant] | 8.33 −log M | 1.51 nM | 1.58 nM | 0.813 nM | 9.33 nM | 8.13 nM | 4.17 nM | 19.1 nM | shifted to the left with time moderately |  |  |  |  |  | 
2 | Cc1ccc(-c2ncccn2)c(C(=O)N2C[C@H](COc3ccc(F)cn3)CC[C@H]2C)c1 [Filorexant] |  | 0.224 nM | 0.186 nM | 0.17 nM | 2.09 nM | 1.45 nM | 1.29 nM |  |  | 0.355 nM | 2.14 nM | rather insensitive to incubation time |  |  | 
3 | COc1ccnc(N2CCC3(CCCN(Cc4c[nH]c5ccccc45)C3=O)CC2)n1 [IPSU, 2-((1H-Indol-3-yl)methyl)-9-(4-methoxypyrimidin-2-yl)-2,9-diazaspiro[5.5]undecan-1-one] |  | 10.7 nM | 15.1 nM | 20.9 nM | 79.4 nM | 55 nM | 60.3 nM |  |  | 10 nM | 70.8 nM | do not show time-dependency |  |  | 
4 | Cc1nc(C(=O)N2CCCC[C@H]2CNC(=O)c2cccc3occc23)c(-c2ccc(F)cc2)s1 [SB-649868] |  | 0.372 nM | 0.17 nM | 0.151 nM | 2.82 nM | 1.17 nM | 0.912 nM |  |  | 0.302 nM | 1.82 nM | shifted to the left over time up to 4 h |  |  | 
5 | Cc1ccc(-n2nccn2)c(C(=O)N2CCN(c3nc4cc(Cl)ccc4o3)CC[C@H]2C)c1 [Suvorexant] |  |  |  |  |  |  |  | 10.2 nM | shifted to the left over time |  |  |  | 6.76 nM | 5.75 nM | 4.47 nM
